Patent US11214803B2, “Modulators of YAP1 expression” (Ionis Pharmaceuticals, Inc., priority 2019, dated 2022)

Columns and labels:
[1] = Cynomolgus monkey tolerability, body and organ weight measurements (Example 34); type: in vivo; details: cynomolgus monkeys, 35 mg/kg subcutaneously; for Heart weight / Kidney weight / Liver with gallbladder weight / Spleen weight: necropsy; for Terminal Body Weight: prior to necropsy
Description: Cynomolgus monkeys were treated with Ionis modified oligonucleotides selected from studies described in the Examples above. Modified oligonucleotide tolerability was evaluated.
During the study period, the monkeys were observed twice daily for signs of illness or distress. Any animal experiencing more than momentary or slight pain or distress due to the treatment, injury or illness was treated by the veterinary staff with approved analgesics or agents to relieve the pain after consultation with the Study Director. Any animal in poor health or in a possible moribund condition was identified for further monitoring and possible euthanasia. Scheduled euthanasia of the animals was conducted on day 86 approximately 48 hours after the last dose by exsanguination while under deep anesthesia. The protocols described in the Example were approved by the Institutional Animal Care and Use Committee (IACUC).
To evaluate the effect of Ionis oligonucleotides on the overall health of the animals, body and organ weights were measured. Terminal body weight was measured prior to necropsy.

[2] = Tolerability in Sprague-Dawley rats, body and organ weights (Example 22); type: in vivo; details: male Sprague-Dawley rats, 50 mg/kg s.c. weekly for 6 weeks (7 doses); for Kidney weight / Liver weight / Spleen weight: end of study; for body weight: terminal, prior to necropsy
Description: Terminal body weight was measured prior to necropsy. Ionis oligonucleotides that caused any changes in organ weights outside the expected range for modified oligonucleotides were excluded from further studies.

[3] = system: Yap1 mRNA; experiment: Dose-dependent inhibition of human Yap1 in SNU-449 cells (Example 9, RTS36584); type: cell-based; details: free uptake; for % UTC (Yap1 mRNA): approximately 48 hours; for IC50: linear regression on a log/linear plot
Summary of the method: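 Read-out was Yap1 mRNA (primer-probe RTS36584) normalised to total RNA by RIBOGREEN, given as % of untreated cells, with IC50 fitted by linear regression of log/linear data. Oligonucleotides were dosed by free uptake to SNU-449 cells, 10,000/well, for ~48 h.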

[4] = system: SCC25 cells; experiment: Cell proliferation assay in SCC25 cells, CellTiter-Glo (Example 25); type: cell-based, human; details: free uptake, 144 hours
Description: Modified oligonucleotides described in the studies above were tested at various doses in squamous cell carcinoma cell SCC25. A control oligonucleotide 792169 (a 3-10-3 cET gapmer with a full phosphorothioate backbone, […], designated herein as SEQ ID No.: 2940; is not complementary to any known human gene) was also tested.
Cultured SCC25 cells at a density of 1,000 cells/well were treated using free uptake with modified oligonucleotides diluted to concentrations described in the tables below. After approximately 144 hours, cell proliferation was measured using the luminescent cell viability CellTiter-Glo® 2.0 Assay (Promega). Results are presented in the tables below as percent control of the amount of luminescence in samples treated with modified oligonucleotides relative to untreated control cells (% UTC).

[5] = Cynomolgus monkey tolerability, pro-inflammatory proteins analysis, Complement C3 and CRP (Example 34); type: in vivo; details: cynomolgus monkeys, 35 mg/kg subcutaneously; for CRP: day 44
Description: To evaluate any inflammatory effect of Ionis oligonucleotides in cynomolgus monkeys, blood samples were taken for analysis. The monkeys were fasted overnight prior to blood collection. On day 42 (pre-dose and 24 hours post-dose), approximately 0.8 mL of blood was collected from each animal and put into tubes without anticoagulant for serum separation. […] Complement C3 were measured using a Toshiba 120 FR NEO chemistry analyzer (Toshiba Co., Japan). […] Another marker of inflammation, C-Reactive Protein (CRP) was tested together with the clinical chemistry parameters tested for liver function above.

[6] = system: Yap1 mRNA; experiment: Inhibition of human Yap1 mRNA in squamous cell carcinoma CAL27 xenograft tumors (Example 28); type: in vivo; details: CAL27 xenografts in NCr-Foxn1nu mice, relative to PBS treated
Description: A squamous cell carcinoma CAL27 xenograft tumor model was used to evaluate activity of modified oligonucleotides targeted to human Yap1. Five million CAL27 cells in 30% matrigel were implanted subcutaneously into the flanks of female CrTac:NCr-Foxn1nu mice (from Taconic) at 4-6 weeks of age. Groups of four mice each were administered with either 15 mg/kg or 30 mg/kg of modified oligonucleotides daily for five days after tumor size had reached ˜100 mm^3 (about 3 weeks post implantation). Tumors were collected and tested for Yap1 mRNA knockdown by RT-qPCR. Yap1 mRNA levels were measured as previously described using the Human Yap1 primer-probe set RTS4814. Yap1 mRNA levels were normalized to actin-beta content, as measured by primer probe set RTS5002. Results are presented in the tables below as percent control of the amount of Yap1 mRNA relative to PBS treated […].

[7] = cynomolgus monkey, in vivo, sc, 35 mg/kg
[8] = system: Yap1 mRNA; experiment: Inhibition of human Yap1 mRNA in epidermoid carcinoma A-431 xenograft tumors (Example 27); type: in vivo; details: A-431 xenografts in NCr-Foxn1nu mice, 6-8 hours post final dose, relative to PBS
Description: An epidermoid carcinoma A-431 xenograft tumor model was used to evaluate activity of modified oligonucleotides targeted to human Yap1. Five million A-431 cells in 30% matrigel were implanted subcutaneously into the flanks of female NCr-Foxn1nu mice (from Taconic) at 4-6 weeks of age. When tumors reached an average volume of 40 mm^3, approximately two weeks post-implantation, groups of four mice each were administered at either 25 mg/kg or 50 mg/kg daily with modified oligonucleotides for […] (5 doses). Tumors were collected 6-8 hours post final dose and tested for Yap1 mRNA knockdown by RT-qPCR. Yap1 mRNA levels were measured as previously described using the Human Yap1 primer-probe set RTS4814. Yap1 mRNA levels were normalized to actin-beta content, as measured by primer probe set RTS5002. Results are presented in the tables below as percent control of the amount of Yap1 mRNA relative to PBS treated animals (% control).

Row | Substance | Heart weight [1] [g] | Kidney weight [1] [g] | Liver with gallbladder weight [1] [g] | Spleen weight [1] [g] | Terminal Body Weight [1] [g] | Kidney weight [2] [g] | Liver weight [2] [g] | Spleen weight [2] [g] | body weight [2] [g] | % UTC (Yap1 mRNA) ([3]; 31.3 nM) [% UTC] | % UTC (Yap1 mRNA) ([3]; 125.0 nM) [% UTC] | % UTC (Yap1 mRNA) ([3]; 500.0 nM) [% UTC] | % UTC (Yap1 mRNA) ([3]; 2000.00 nM) [% UTC] | IC50 [3] [nM] | cell proliferation (luminescence) % UTC ([4]; 0.04 μM) [% UTC] | cell proliferation (luminescence) % UTC ([4]; 0.2 μM) [% UTC] | cell proliferation (luminescence) % UTC ([4]; 1 μM) [% UTC] | cell proliferation (luminescence) % UTC ([4]; 5 μM) [% UTC] | Complement C3 ([5]; Day 42 (pre-dose)) [mg/dL] | Complement C3 ([5]; day 42 (24 hr post-dose)) [mg/dL] | further results
1 | 1198605 (GTAATATTGCAATCTG; modified gapmer, further chemistry not given here) [compound 1198605] | 11 | 15 | 67 | 4 | 2968 | 3.6 | 18 | 2.1 | 372 | 57 | 27 | 7 | 1 | 30 | 77 | 39 | 23 | 13 | 105 | 95 | CRP [5]: 4.2 mg/L; Yap1 mRNA in tumors, % UTC ([6]; 15 mg/kg daily for five days): 65 % UTC; Yap1 mRNA in tumors, % UTC ([6]; 30 mg/kg daily for five days): 48 % UTC; A/G ratio [7]: 1.5; Yap1 mRNA in tumors, % control ([8]; 25 mpk daily (5 doses)): 32 % control; Yap1 mRNA in tumors, % control ([8]; 50 mpk daily (5 doses)): 30 % control
2 | 1198728 (TATTAGAGTATGTGGC; modified gapmer, further chemistry not given here) [compound 1198728] | 10 | 15 | 65 | 5 | 2722 | 2.9 | 15 | 1.4 | 381 | 51 | 28 | 9 | 3 | < 30 | 88 | 61 | 30 | 20 | 93 | 90 | CRP [5]: 4.0 mg/L; Yap1 mRNA in tumors, % UTC ([6]; 15 mg/kg daily for five days): 77 % UTC; Yap1 mRNA in tumors, % UTC ([6]; 30 mg/kg daily for five days): 56 % UTC; A/G ratio [7]: 1.3; Yap1 mRNA in tumors, % control ([8]; 25 mpk daily (5 doses)): 47 % control; Yap1 mRNA in tumors, % control ([8]; 50 mpk daily (5 doses)): 39 % control
3 | 1198831 (CACTTTTACATTAGGA; chemically modified gapmer, further chemistry not given here) [compound 1198831] | 11 | 14 | 65 | 4 | 2788 | 3.3 | 19 | 2.0 | 426 | 74 | 33 | 10 | 4 | 100 | 88 | 54 | 25 | 21 | 81 | 81 | CRP [5]: 1.1 mg/L; Yap1 mRNA in tumors, % UTC ([6]; 15 mg/kg daily for five days): 70 % UTC; Yap1 mRNA in tumors, % UTC ([6]; 30 mg/kg daily for five days): 48 % UTC; A/G ratio [7]: 1.4; Yap1 mRNA in tumors, % control ([8]; 25 mpk daily (5 doses)): 47 % control; Yap1 mRNA in tumors, % control ([8]; 50 mpk daily (5 doses)): 37 % control
4 | 1198623 (CTAAGTAAGGTTTCCC; modified gapmer, further chemistry not given here) [compound 1198623] | 9 | 13 | 62 | 3 | 2790 | 3.6 | 20 | 1.9 | 472 | 48 | 24 | 5 | 1 | < 30 | 84 | 55 | 36 | 29 | 105 | 101 | CRP [5]: 2.0 mg/L; Yap1 mRNA in tumors, % UTC ([6]; 15 mg/kg daily for five days): 52 % UTC; Yap1 mRNA in tumors, % UTC ([6]; 30 mg/kg daily for five days): 44 % UTC; A/G ratio [7]: 1.4; Yap1 mRNA in tumors, % control ([8]; 25 mpk daily (5 doses)): 43 % control; Yap1 mRNA in tumors, % control ([8]; 50 mpk daily (5 doses)): 36 % control
5 | 1198872 (TGTATGTCAGAAGAGT; chemically modified gapmer, further chemistry not given here) [compound 1198872] | 12 | 15 | 63 | 4 | 3126 | 3.4 | 17 | 1.3 | 417 | 49 | 21 | 6 | 1 | < 30 | 82 | 37 | 22 | 18 | 103 | 96 | CRP [5]: 1.1 mg/L; Yap1 mRNA in tumors, % UTC ([6]; 15 mg/kg daily for five days): 55 % UTC; Yap1 mRNA in tumors, % UTC ([6]; 30 mg/kg daily for five days): 38 % UTC; A/G ratio [7]: 1.3; Yap1 mRNA in tumors, % control ([8]; 25 mpk daily (5 doses)): 34 % control; Yap1 mRNA in tumors, % control ([8]; 50 mpk daily (5 doses)): 26 % control
